From PubChem BioAssay AID256 (DTP/NCI, 2004)
“And” between values parts separate entries of the source, which are not always exact repeats. Equal entries are not always repeated. Toxic doses and inconclusive results are not listed. How the source made its calls: active means survival T/C of 150% or more; inactive means T/C below 125% in these data.

Tested on: CD2F1 mice, L1210 leukemia ip, survival T/C
Experiment: NCI In Vivo Anticancer Drug Screen. Data for tumor model L1210 Leukemia (intraperitoneal) in CD2F1 (CDF1) mice
Details: higher = longer survival
Procedure, shortened: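 Read-out first: treated-group measurement over vehicle-control measurement, expressed as a ratio. Animals bore a transplanted tumor line and were dosed with compound or vehicle.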

[1] = endpoint: mean survival time, dose: 100.0 mg/kg/injection, schedule: Q04DX003 (ip), vehicle: saline with Tween-80
[2] = endpoint: mean survival time, dose: 200.0 mg/kg/injection, schedule: Q04DX003 (ip), vehicle: saline with Tween-80
[3] = endpoint: mean survival time, dose: 50.0 mg/kg/injection, schedule: Q01DX009 (ip), vehicle: saline with Tween-80
[4] = endpoint: mean survival time, dose: 100.0 mg/kg/injection, schedule: Q01DX009 (ip), vehicle: saline with Tween-80
[5] = endpoint: mean survival time, dose: 200.0 mg/kg/injection, schedule: Q01DX009 (ip), vehicle: saline with Tween-80

Measured: T/C

O[Si](c1ccccc1)(c1ccccc1)c1ccccc1
inactive: [1] 102 % of control | [2] 97 % of control | endpoint: mean survival time, dose: 400.0 mg/kg/injection, schedule: Q04DX003 (ip), vehicle: saline with Tween-80 92 % of control

CC(=O)NC(CSCc1c2ccccc2c(C)c2c1ccc1ccccc12)C(=O)O (stereo not drawn)
inactive: [3] 103 % of control | [4] 95 % of control | [1] 93 % of control | [5] 103 % of control | [2] 90 % of control

c1ccc(C(c2ccccc2)[P+](c2ccccc2)(c2ccccc2)c2ccccc2)cc1
inactive: endpoint: mean survival time, dose: 375.0 micrograms/kg/injection, schedule: Q01DX001 (ip), vehicle: gum acacia 92 % of control | endpoint: mean survival time, dose: 375.0 micrograms/kg/injection, schedule: Q01DX009 (ip), vehicle: gum acacia 106 % of control | endpoint: mean survival time, dose: 375.0 micrograms/kg/injection, schedule: Q04DX003 (ip), vehicle: gum acacia 95 % of control | endpoint: mean survival time, dose: 750.0 micrograms/kg/injection, schedule: Q01DX001 (ip), vehicle: gum acacia 103 % of control | endpoint: mean survival time, dose: 750.0 micrograms/kg/injection, schedule: Q01DX009 (ip), vehicle: gum acacia 101 % of control | endpoint: mean survival time, dose: 750.0 micrograms/kg/injection, schedule: Q04DX003 (ip), vehicle: gum acacia 101 % of control | endpoint: mean survival time, dose: 1500.0 micrograms/kg/injection, schedule: Q01DX001 (ip), vehicle: gum acacia 101 % of control | endpoint: mean survival time, dose: 1500.0 micrograms/kg/injection, schedule: Q01DX009 (ip), vehicle: gum acacia 108 % of control | endpoint: mean survival time, dose: 1500.0 micrograms/kg/injection, schedule: Q04DX003 (ip), vehicle: gum acacia 106 % of control | endpoint: mean survival time, dose: 3000.0 micrograms/kg/injection, schedule: Q01DX001 (ip), vehicle: gum acacia 98 % of control | endpoint: mean survival time, dose: 3000.0 micrograms/kg/injection, schedule: Q01DX009 (ip), vehicle: gum acacia 112 % of control | endpoint: mean survival time, dose: 3000.0 micrograms/kg/injection, schedule: Q04DX003 (ip), vehicle: gum acacia 108 % of control | endpoint: mean survival time, dose: 6000.0 micrograms/kg/injection, schedule: Q01DX001 (ip), vehicle: gum acacia 112 % of control | endpoint: mean survival time, dose: 6000.0 micrograms/kg/injection, schedule: Q01DX009 (ip), vehicle: gum acacia 92 % of control | endpoint: mean survival time, dose: 6000.0 micrograms/kg/injection, schedule: Q04DX003 (ip), vehicle: gum acacia 114 % of control

Cc1cc(CSC(=N)N)c(C)cc1CSC(=N)N
inactive: endpoint: mean survival time, dose: 5.0 mg/kg/injection, schedule: Q01DX009 (ip), vehicle: saline with Tween-80 92 % of control | endpoint: mean survival time, dose: 5.0 mg/kg/injection, schedule: Q04DX003 (ip), vehicle: saline with Tween-80 106 % of control | endpoint: mean survival time, dose: 10.0 mg/kg/injection, schedule: Q01DX009 (ip), vehicle: saline with Tween-80 101 % of control | endpoint: mean survival time, dose: 10.0 mg/kg/injection, schedule: Q04DX003 (ip), vehicle: saline with Tween-80 106 % of control | endpoint: mean survival time, dose: 20.0 mg/kg/injection, schedule: Q01DX009 (ip), vehicle: saline with Tween-80 95 % of control | endpoint: mean survival time, dose: 20.0 mg/kg/injection, schedule: Q04DX003 (ip), vehicle: saline with Tween-80 101 % of control

Cc1cccc(Oc2ccc(C(F)(F)F)cc2[N+](=O)[O-])c1
inactive: endpoint: mean survival time, dose: 100.0 mg/kg/injection, schedule: Q01DX001 (ip), vehicle: saline with Tween-80 98 % of control | endpoint: mean survival time, dose: 200.0 mg/kg/injection, schedule: Q01DX001 (ip), vehicle: saline with Tween-80 90 % of control | endpoint: mean survival time, dose: 400.0 mg/kg/injection, schedule: Q01DX001 (ip), vehicle: saline with Tween-80 91 % of control

Nc1nc2c(ncn2-c2ccc(OCCNC(=O)Nc3cccc(S(=O)(=O)F)c3)cc2)c(=O)[nH]1
inactive: endpoint: mean survival time, dose: 100.0 mg/kg/injection, schedule: Q04DX002 (ip), vehicle: saline with Tween-80 104 % of control | endpoint: mean survival time, dose: 200.0 mg/kg/injection, schedule: Q04DX002 (ip), vehicle: saline with Tween-80 96 % of control | endpoint: mean survival time, dose: 400.0 mg/kg/injection, schedule: Q04DX002 (ip), vehicle: saline with Tween-80 90 % of control

CCCCCCCCCCCCOP(OCCCCCCCCCCCC)OCCCCCCCCCCCC
inactive: endpoint: mean survival time, dose: 100.0 mg/kg/injection, schedule: Q04DX003 (ip), vehicle: alcohol 102 % of control | endpoint: mean survival time, dose: 200.0 mg/kg/injection, schedule: Q04DX003 (ip), vehicle: alcohol 96 % of control | endpoint: mean survival time, dose: 400.0 mg/kg/injection, schedule: Q04DX003 (ip), vehicle: alcohol 98 % of control

CC(C)(O)/C=C/C(=O)[C@](C)(O)[C@H]1[C@H](O)C[C@@]2(C)[C@@H]3CC=C4[C@@H](C=C(O)C(=O)C4(C)C)[C@]3(C)C(=O)C[C@]12C
inactive: endpoint: median survival time, dose: 0.5 mg/kg/injection, schedule: Q01DX005 (ip), vehicle: water 113 % of control | endpoint: median survival time, dose: 1.0 mg/kg/injection, schedule: Q01DX005 (ip), vehicle: water 110 % of control

Nc1nc(N)c(N=Nc2cccc3ccccc23)c(N)n1
inactive: endpoint: mean survival time, dose: 6.25 mg/kg/injection, schedule: Q01DX009 (ip), vehicle: other 98 % of control | endpoint: mean survival time, dose: 12.5 mg/kg/injection, schedule: Q01DX009 (ip), vehicle: other 96 % of control | endpoint: mean survival time, dose: 25.0 mg/kg/injection, schedule: Q01DX009 (ip), vehicle: other 95 % of control | endpoint: mean survival time, dose: 25.0 mg/kg/injection, schedule: Q01DX009 (ip), vehicle: water 103 % of control | endpoint: mean survival time, dose: 50.0 mg/kg/injection, schedule: Q01DX009 (ip), vehicle: other 95 % of control | endpoint: mean survival time, dose: 50.0 mg/kg/injection, schedule: Q01DX009 (ip), vehicle: water 104 % of control | endpoint: mean survival time, dose: 100.0 mg/kg/injection, schedule: Q01DX009 (ip), vehicle: other 96 % of control | endpoint: mean survival time, dose: 100.0 mg/kg/injection, schedule: Q01DX009 (ip), vehicle: water 87 % of control

O=C(O)c1cccc([N+](=O)[O-])c1C(=O)c1ccccc1
inactive: [4] 107 % of control | [5] 102 % of control

COc1cc(C=C2C(=O)C=CC2=O)ccc1O
inactive: endpoint: mean survival time, dose: 3.13 mg/kg/injection, schedule: Q04DX002 (ip), vehicle: saline with Tween-80 108 % of control | endpoint: mean survival time, dose: 6.25 mg/kg/injection, schedule: Q04DX002 (ip), vehicle: saline with Tween-80 100 % of control | endpoint: mean survival time, dose: 12.5 mg/kg/injection, schedule: Q04DX002 (ip), vehicle: saline with Tween-80 106 % of control

[Cl][Pt+2][Cl].[NH-]CC1CCCCC1[NH-] (stereo not drawn)
active: endpoint: mean survival time, dose: 3.12 mg/kg/injection, schedule: Q04DX003 (ip), vehicle: saline with Tween-80 222 % of control | endpoint: mean survival time, dose: 6.25 mg/kg/injection, schedule: Q04DX003 (ip), vehicle: saline with Tween-80 319 % of control and 175 % of control | endpoint: mean survival time, dose: 12.5 mg/kg/injection, schedule: Q04DX003 (ip), vehicle: saline with Tween-80 348 % of control and 270 % of control | endpoint: mean survival time, dose: 25.0 mg/kg/injection, schedule: Q04DX003 (ip), vehicle: saline with Tween-80 309 % of control

C/C(=C/C(C)(C)C)C1CCCCC1C (stereo not drawn)
inactive: [3] 100 % of control | [4] 100 % of control | [5] 116 % of control

COC(=O)Nc1cc2c3c(c1)CCCN3CCC2
inactive: [1] 104 % of control | [2] 93 % of control

CCOC(=O)Nc1cc2c(c(N)n1)N=C(c1ccc(-c3ccccc3)cc1)CN2
inactive: endpoint: mean survival time, dose: 0.78 mg/kg/injection, schedule: Q01DX009 (ip), vehicle: Klucel (hydroxypropylcellulose) (HPC) 106 % of control | endpoint: mean survival time, dose: 1.56 mg/kg/injection, schedule: Q01DX009 (ip), vehicle: Klucel (hydroxypropylcellulose) (HPC) 112 % of control | endpoint: mean survival time, dose: 3.12 mg/kg/injection, schedule: Q01DX009 (ip), vehicle: Klucel (hydroxypropylcellulose) (HPC) 114 % of control and 111 % of control | endpoint: mean survival time, dose: 6.25 mg/kg/injection, schedule: Q01DX009 (ip), vehicle: Klucel (hydroxypropylcellulose) (HPC) 109 % of control | endpoint: mean survival time, dose: 12.5 mg/kg/injection, schedule: Q01DX001 (ip), vehicle: Klucel (hydroxypropylcellulose) (HPC) 115 % of control | endpoint: mean survival time, dose: 12.5 mg/kg/injection, schedule: Q01DX009 (ip), vehicle: Klucel (hydroxypropylcellulose) (HPC) 89 % of control | endpoint: mean survival time, dose: 50.0 mg/kg/injection, schedule: Q01DX001 (ip), vehicle: Klucel (hydroxypropylcellulose) (HPC) 121 % of control

O=C(O)C1C(c2ccccc2)=C(c2ccccc2)c2ccccc21 (stereo not drawn)
inactive: endpoint: mean survival time, dose: 25.0 mg/kg/injection, schedule: Q01DX009 (ip), vehicle: saline with Tween-80 94 % of control | [3] 93 % of control | [4] 98 % of control

O=C(CNC(=O)Nc1cccc([N+](=O)[O-])c1)N/N=C/c1c(O)ccc2ccccc12
inactive: [3] 88 % of control | [4] 92 % of control | [5] 95 % of control

COc1ccc([I+]c2cccc(Cl)c2)cc1Cl
inactive: endpoint: mean survival time, dose: 0.37 mg/kg/injection, schedule: Q01DX009 (ip), vehicle: saline with Tween-80 97 % of control | endpoint: mean survival time, dose: 0.75 mg/kg/injection, schedule: Q01DX009 (ip), vehicle: saline with Tween-80 107 % of control | endpoint: mean survival time, dose: 1.5 mg/kg/injection, schedule: Q01DX009 (ip), vehicle: saline with Tween-80 98 % of control | endpoint: mean survival time, dose: 3.0 mg/kg/injection, schedule: Q01DX009 (ip), vehicle: saline with Tween-80 110 % of control | endpoint: mean survival time, dose: 6.0 mg/kg/injection, schedule: Q01DX009 (ip), vehicle: saline with Tween-80 107 % of control | endpoint: mean survival time, dose: 12.0 mg/kg/injection, schedule: Q01DX009 (ip), vehicle: saline with Tween-80 109 % of control | endpoint: median survival time, dose: 12.5 mg/kg/injection, schedule: Q01DX009 (ip), vehicle: saline with Tween-80 116 % of control | endpoint: median survival time, dose: 25.0 mg/kg/injection, schedule: Q01DX009 (ip), vehicle: saline with Tween-80 116 % of control
